Results published in US20240024479A1, “NK CELLS OR T CELLS EXPRESSING CHIMERIC HEMATOPOIETIC GROWTH FACTOR RECEPTORS AND METHODS OF USE” (The United States of America, as represented by the …, priority 2020, published 2024).

Key:
parental NK-92 cell line = assay: In vitro cell expansion of parental NK-92; format: cell-based, human; conditions: EPO or TPO administration
Procedure: In vitro cell expansion cultures: The NK-92 (5×10^4 cell/ml) and KHYG-1 (1×10^4 cell/ml) cells were cultured in 1 ml of complete medium in 24-well plate. […] Trypan blue negative cells were counted every other day. […] The short-term cell expansion assay was performed in similar fashion, except cells were initially cultured without IL-2 overnight before adding different cytokines and enumerating the cell number. For competitive primary NK and T cell expansion assay, all transduced cells (5×10^5/ml for NK and 4×10^5/ml for T cell) containing a mixture of GFP positive (transduced) and GFP negative (untransduced) cells were plated on day 0. Fresh medium with appropriate supplements was replaced every other day for NK cells and only on day 3 for T cell experiment. Viable cells were counted and percentage of GFP^+ cells was acquired on indicated days (NK: day 4 and 6, T: day 3 and 6). The fold change of GFP^+ cells was calculated by multiplying the counted cell number times the fraction GFP^+.

c-MPL+ NK-92 cells [1] = assay: Short-term expansion and apoptosis assay, c-MPL+ NK-92; format: cell-based, human; conditions: TPO plus LD IL-2 vs LD IL-2 alone; day 3
Procedure: (§1) In vitro cell expansion cultures: The NK-92 (5×10^4 cell/ml) and KHYG-1 (1×10^4 cell/ml) cells were cultured in 1 ml of complete medium in 24-well plate. […] Trypan blue negative cells were counted every other day. […] For competitive primary NK and T cell expansion assay, all transduced cells (5×10^5/ml for NK and 4×10^5/ml for T cell) containing a mixture of GFP positive (transduced) and GFP negative (untransduced) cells were plated on day 0. Fresh medium with appropriate supplements was replaced every other day for NK cells and only on day 3 for T cell experiment. Viable cells were counted and percentage of GFP^+ cells was acquired on indicated days (NK: day 4 and 6, T: day 3 and 6). The fold change of GFP^+ cells was calculated by multiplying the counted cell number times the fraction GFP^+.
(§2) Staining was performed in phosphate-buffered saline (PBS) with 2% FBS and 2 mM EDTA and analyzed on a BD LSRFortessa machine. If intracellular staining was required, BD cytofix/cytoperm (BD Biosciences) was applied for cell fixation and permeabilization after surface staining. The apoptosis assay was performed using PE annexinV apoptosis detection kit (BD Biosciences). The data were analyzed on FlowJo software.

c-MPL+ NK-92 cells [2] = assay: Flow cytometry of cell signaling and anti-apoptotic proteins, c-MPL+ NK-92; format: cell-based, human
Procedure: as §2
Expression of target proteins was evaluated afterward by flow cytometry as described above.

Raji tumor cells = assay: Flow cytometry based killing assay, c-MPL+ NK-92 effectors vs Raji; format: cell-based, human; conditions: c-MPL+ NK-92 exposed to TPO+LD IL-2, 4 hours
Procedure: (§3) The target cells were labeled with 1 μM cell trace violet in some experiments (Thermo Fisher Scientific). The effector and target cells were incubated together in duplicate wells at specific E:T ratio in complete medium without cytokines for 4 hours (total cell number: 200,000 to 250,000 per well in 96-well plate). 7-AAD and Sphero AccuCount Fluorescent particles (Spherotech, IL) were added before analysis by flow cytometry. The absolute number of viable 7-AAD negative target cells was calculated according to bead numbers added (Cooper et al., Leukemia 32:1970-1983, 2018). The percentage of dead cells was calculated relative to target cell only control wells.

721.221 = assay: Flow cytometry based killing assay, c-MPL+ NK-92 effectors vs 721.221; format: cell-based, human; conditions: c-MPL+ NK-92 with TPO administration
Procedure: as §3

K562 = assay: Flow cytometry based killing assay, c-MPL+ NK-92 effectors vs K562; format: cell-based, human; conditions: c-MPL+ NK-92 with TPO administration
Procedure: as §3

GFP+ c-MPL+ NK cells = assay: Competitive expansion of c-MPL-transduced primary NK cells; format: cell-based, human; conditions: day 6
Procedure: as §1

[3] = tested on: untransduced control cells; assay: Degranulation assay and cytokine production, untransduced control cells; format: cell-based, human; conditions: TPO administration
Procedure: To examine degranulation, cells were washed after two hours and stained with anti-CD107a (H4A3) (BioLegend). To assay cytokine production, GolgiPlug and GolgiStop (BD Biosciences) were added at manufacturer's recommended concentrations within the first hour of co-culture with K562. After 4 hours, cells were washed and stained for cell surface markers, then stained intracellularly with mAb recognizing TNF-α (Mab 11) and IFN-γ (B27) (BD Biosciences).

GFP+ MPL+ cells = assay: Persistence of transduced human NK cells in immunodeficient mice; format: in vivo, NSG mice; conditions: for average percentage of GFP+ MPL+ cells amongst the recovered human cells: TPO 50 μg/kg daily, 4 days, about 10% of injected cells
Source text: Both populations were then mixed at a 1:1 ratio immediately before injection intravenously into NSG mice (such that GFP^+ MPL^+ cells and GFP^+ CD34^+ cells each constituted ˜10% of the mixed cells). Each mouse received 2.2×10^7 total human NK cells. […] MPL-transduced NK cells were identified as GFP^+ MPL^+ while CD34-transduced NK cells were gated as GFP^+ CD34^+. The frequency of transduced cells is presented (FIG. 14A) as a percentage of MHC-I^+ human cells isolated from organs or (FIG. 14B) as percent of total live mononuclear cells recovered from each organ. The legend applies to both FIGS. 14A and 14B. Data from 9 mice per group are shown with NK cells derived from 3 human blood donors. Data was normalized to account for unequal transduction or subset mixing before injection using the equation: […]
Persistence of transduced human NK cells in immunodeficient mice: NK cells from human PBMC were transduced with matched lentiviral vectors encoding GFP/MPL or GFP/CD34 then mixed at a 1:1 ratio and injected intravenously into NSG mice (2.2×10^7 total cells/mouse). […] After euthanasia, blood was drawn by cardiac puncture, bone marrow was harvested by flushing the tibia, and spleen, liver, and lung fragments were processed by grinding over 70 μm nylon mesh. Blood, bone marrow, lung, and spleen samples received 1-2 rounds of 5 minute incubations with ACK lysis buffer (Quality biological). Liver samples were purified by centrifugation over 35% Percoll (Sigma) solution in RPMI. The presence of transduced human cells was quantified in various organs via flow cytometry using antibodies to human MHC class I (W6/32) (BioLegend), c-MPL (1.6.1), CD34 (581) (BD BioSciences), GFP-fluorescence, and Live/Dead Aqua viability dye (Thermo Fisher).

GFP+ MPL+ population = assay: Parallel in vitro cultures of the mixed transduced NK cells; format: cell-based, human; conditions: only TPO

## TPO: recombinant human thrombopoietin, ligand of the c-MPL receptor; 50 ng/ml rhTPO (R&D)
Parental NK-92 cell line
  expansion of the parental NK-92 cell line: did not alter
c-MPL+ NK-92 cells [1]
  proportion of dead/apoptotic cells: significantly lower proportions of dead/apoptotic cells
c-MPL+ NK-92 cells [2]; TPO added to LD IL-2
  pS6 expression: 11.84
c-MPL+ NK-92 cells [2]; TPO combined with LD IL-2
  STAT5 phosphorylation, additivity: No additive effects
c-MPL+ NK-92 cells [2]; TPO vs no IL-2 control, comparable to LD IL-2
  pSTAT5 expression: appeared to increase pSTAT5 expression
c-MPL+ NK-92 cells [2]; TPO, 24 hours, no IL-2
  Bcl-2 RMFI: 64.54
  Bcl-xL RMFI: 4.52
c-MPL+ NK-92 cells [2]; cultures supplemented with IL-2 or TPO, 15 minutes
  phospho-p44/42 MAPK expression: No alteration
Raji tumor cells; E:T 1:1
  mean percentage of dead Raji cells: 84%
Raji tumor cells; E:T 10:1
  mean percentage of dead Raji cells: 85%
721.221
  killing of 721.221 tumor targets: no significant killing augmentation
K562
  killing of K562 tumor targets: no significant killing augmentation
GFP+ c-MPL+ NK cells; TPO plus 10 U/ml LD IL-2
  fold change of GFP+ c-MPL+ NK cells: 24.3 fold
GFP+ c-MPL+ NK cells; TPO+25 U/ml IL-2
  fold change of GFP+ c-MPL+ NK cells: 34.1 fold
[3]
  degranulation or cytokine production of untransduced control cells: no measured effects
GFP+ MPL+ cells; TPO-treated mice
  GFP+ MPL+ cells as percentage of total live cells from each organ, vs GFP+ CD34+ control cells: significantly more
GFP+ MPL+ cells; blood and spleen
  average percentage of GFP+ MPL+ cells amongst the recovered human cells: 15%
GFP+ MPL+ cells; liver and lung
  average percentage of GFP+ MPL+ cells amongst the recovered human cells: 20%
GFP+ MPL+ population
  GFP+ MPL+ population in parallel cultures: 31%
